From paper PMC10831071, “Reaction hijacking inhibition of Plasmodium falciparum asparagine tRNA synthetase” (Nature Communications, 2024)
In brackets after ≈: the same amount, converted by molar mass. Several values for one entry are separate records, joined by “and”; a condition that tells them apart may be missing. Identical values can stand only once. Like-named read-outs stand apart in the source and are kept apart here.

How the values were obtained:
[1] = tested on: P. falciparum (3D7); test: Activity against P. falciparum 3D7 cultures, 72 h (PfLDH growth inhibition / flow cytometry); assay type: cell-based, Plasmodium falciparum
Method: Antimalarial activity against P. falciparum 3D7 was tested by TCGLS, Kolkata, India, using the lactate dehydrogenase (PfLDH) growth inhibition assay. […] Plates were shaken to ensure mixing and were placed in the dark at 21 °C for 20 min. […] P. falciparum strain (3D7) was obtained from BEI Resources.
(§1) Viability was assessed in the second cycle by flow cytometry, following labeling with 2 μM Syto-61 (Thermo Fisher Scientific)[48],[49]. Viability represents the parasitemia normalized to untreated and “kill” controls that were treated with 2 μM dihydroartemisinin (DHA; Sigma-Aldrich) for 48–72 h. For drug pulse assays, tightly synchronized Cam3.II-rev[50] parasites (1–1.5% parasitemia, 0.2% final hematocrit) were added to the plates and incubated for 6 h. Drugs were removed and the parasitemia assessed in the trophozoite stage of the next cycle.

[2] = Metabolic stability in human liver microsomes; assay type: in vitro ADME; conditions: n = 2
Method: A solution of the test compounds in phosphate buffer solution (1 µM) was incubated in pooled human and mouse liver microsomes (0.5 mg/ml) for 0, 5, 20, 30, 45 and 60 min at 37 °C in the presence and absence of an NADPH regeneration system (NRS). The tests were carried out by TCGLS, Kolkata, India. The reaction was terminated with the addition of ice-cold acetonitrile, containing a […] standard, at designated time points. The sample was centrifuged (3300 × g) for 20 min at 20 °C and the supernatant was diluted by half in water and then analyzed by LC-MS/MS. The % parent compound remaining, half-life (T1/2) and clearance (CLint,app) were calculated using standard methodology. The experiment was carried out in duplicate. Verapamil, diltiazem, phenacetin and imipramine were used as reference standards.

[3] = Stability in rat hepatocytes; assay type: in vitro ADME
[4] = tested on: Dd2 parasites selected with OSM-S-106; test: Sensitivity of ramp-up OSM-S-106-selected Dd2 clones; assay type: cell-based; conditions: Plasmodium falciparum
[5] = tested on: P. falciparum Cam3.II-rev; test: Drug pulse (6 h) viability assay; assay type: cell-based, Plasmodium falciparum
Method: as §1

[6] = tested on: control YFP line (TetR/DOZI module); test: OSM-S-106 susceptibility assay, control YFP line; assay type: cell-based, Plasmodium falciparum; conditions: YFP-aptamer control line
Method: Synchronous ring-stage PfAsnRS, PfAlaRS, PfGlyRS, PfNT4, PfGDH3, and PfCA cKD parasites, as well as a control line expressing a fluorescent protein under the control of the TetR/DOZI module, were maintained in 0.5 µM aTc to achieve wild-type protein levels, and 0.001 or 0.0015 µM aTc for knockdown of PfAsnRS, PfAlaRS and PfGlyRS, and no aTc for knockdown of PfNT4, PfGDH3 and PfCA. DMSO- and dihydroartemisinin-treatment (0.5 µM) served as reference controls.

[7] = target: T1, HsAsnRS (Homo sapiens, UniProt O43776); test: ATP consumption assay (Kinase-Glo), HsAsnRS; assay type: biochemical; conditions: for ATP consumption: HsAsnRS, normalised to 1 (Fig 3C)
T1 construct: HsAsnRS (residues M1–P548) and CDHsAsnRS (residues A98–P548); His6 (N, cleaved yes); made in house; host or cells: E. coli BL21 (DE3), pET11a
T1 sequence (O43776 1-548): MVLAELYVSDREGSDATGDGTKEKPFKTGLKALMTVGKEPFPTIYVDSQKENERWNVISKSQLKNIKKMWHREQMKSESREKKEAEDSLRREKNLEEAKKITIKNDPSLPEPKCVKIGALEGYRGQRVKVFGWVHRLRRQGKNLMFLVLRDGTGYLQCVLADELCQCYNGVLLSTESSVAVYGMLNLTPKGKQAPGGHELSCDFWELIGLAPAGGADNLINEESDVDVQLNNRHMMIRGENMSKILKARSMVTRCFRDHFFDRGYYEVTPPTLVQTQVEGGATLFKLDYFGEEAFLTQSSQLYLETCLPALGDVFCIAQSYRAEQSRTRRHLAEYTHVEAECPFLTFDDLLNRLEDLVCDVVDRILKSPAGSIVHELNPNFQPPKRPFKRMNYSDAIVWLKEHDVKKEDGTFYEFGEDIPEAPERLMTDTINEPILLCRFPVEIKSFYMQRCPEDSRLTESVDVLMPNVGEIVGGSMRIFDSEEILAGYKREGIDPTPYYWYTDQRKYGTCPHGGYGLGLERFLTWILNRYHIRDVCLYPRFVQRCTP

[8] = Solubility; assay type: physicochemical
[9] = Solid state stability under ambient conditions; assay type: physicochemical

**Q.** With `Nc1ncnc2cc(-c3cccc(S(N)(=O)=O)c3)sc12` [OSM-S-106] as the compound, how does the IC50 ([1]; Plasmodium falciparum, 3D7, 72 h, read-out: Pf3D7 IC50(72 h), 72 h, mean ± SD or duplicate values) read?
**A.** The IC50 was 58 ± 17 nM.

**Q.** And the IC50 ([1]; Plasmodium falciparum, 3D7, read-out: amount needed to kill parasite cultures)?
**A.** Its IC50 is roughly 60 nM.

**Q.** And the IC50 ([1]; read-out: Pf3D7 IC50 (72h), individual biological repeats (source data of Table 1))?
**A.** The IC50 was 61.1 nM and 52.7 nM and 87.1 nM and 79.6 nM and 50.5 nM and 48.8 nM and 37.9 nM and 43.7 nM.

**Q.** And the Degradation half-life [2]?
**A.** Its Degradation half-life is 395/619.

**Q.** What about the “stability during incubation with rat hepatocytes” value [3] of the same compound?
**A.** The value was “stable”.

**Q.** What about the IC50 ([4]; DD2, parasite Dd2-B2-2 (parent)) of the same compound?
**A.** Its IC50 is 79 ± 12 nM.

**Q.** What about the IC50 ([4]; DD2, parasite Dd2-B2-3 (parent)) of the same compound?
**A.** Its IC50 is 80 nM.

**Q.** And the IC50 ([4]; DD2, parasite Dd2-OSM-2A6)?
**A.** Its IC50 is 700 nM.

**Q.** And the IC50 ([4]; DD2, parasite Dd2-OSM-2A9)?
**A.** The IC50 was 320 nM.

**Q.** What about the IC50 ([4]; DD2, parasite Dd2-OSM-2B2) of the same compound?
**A.** The IC50 was 700 nM.

**Q.** What about the IC50 ([4]; DD2, parasite Dd2-OSM-2D6) of the same compound?
**A.** Its IC50 is 780 nM.

**Q.** What about the IC50 ([4]; DD2, parasite Dd2-OSM-3E5) of the same compound?
**A.** Its IC50 is 160 nM.

**Q.** And the IC50 ([4]; DD2, parasite Dd2-OSM-3H7)?
**A.** The IC50 was 220 nM.

**Q.** What about the Viability ([5]; 78.1 nM, 6 h pulse, individual experiments, 0 nM = 100) of the same compound?
**A.** Its Viability is 93.5356 and 88.7263.

**Q.** What about the Viability ([5]; 156.3 nM, 6 h pulse, individual experiments, 0 nM = 100) of the same compound?
**A.** The Viability was 81.4036 and 83.8337.

**Q.** What about the Viability ([5]; 312.5 nM, 6 h pulse, individual experiments, 0 nM = 100) of the same compound?
**A.** Its Viability is 81.9846 and 75.9519.

**Q.** And the Viability ([5]; 625 nM, 6 h pulse, individual experiments, 0 nM = 100)?
**A.** The Viability was 76.0359 and 75.5937.

**Q.** What about the Viability ([5]; 1250 nM, 6 h pulse, individual experiments, 0 nM = 100) of the same compound?
**A.** Its Viability is 77.505 and 78.8039.

**Q.** And the Viability ([5]; 2500 nM, 6 h pulse, individual experiments, 0 nM = 100)?
**A.** Its Viability is 63.2365 and 57.9681.

**Q.** What about the Viability ([5]; 5000 nM, 6 h pulse, individual experiments, 0 nM = 100) of the same compound?
**A.** Its Viability is 58.8326 and 46.673 and 10.7308.

**Q.** What about the Viability ([5]; 10000 nM, 6 h pulse, individual experiments, 0 nM = 100) of the same compound?
**A.** The Viability was 6.448 and 2.352 and 1.857.

**Q.** What about the Viability ([5]; 20000 nM, 6 h pulse, individual experiments, 0 nM = 100) of the same compound?
**A.** The Viability was 0 and 0.3604 and 0.5288.

**Q.** What about the Viability ([5]; 40000 nM, 6 h pulse, individual experiments, 0 nM = 100) of the same compound?
**A.** Its Viability is 1.032 and 0 (2×).

**Q.** And the viability at 0.0781 µM ([5]; Plasmodium falciparum, 6 h, 78.1 nM, 6 h pulse, individual experiments, 0 nM = 100)?
**A.** Its viability at 0.0781 µM is 77.5%.

**Q.** What about the viability at 0.1563 µM ([5]; Plasmodium falciparum, 6 h, 156.3 nM, 6 h pulse, individual experiments, 0 nM = 100) of the same compound?
**A.** Its viability at 0.1563 µM is 80.2%.

**Q.** What about the viability at 0.3125 µM ([5]; Plasmodium falciparum, 6 h, 312.5 nM, 6 h pulse, individual experiments, 0 nM = 100) of the same compound?
**A.** The viability at 0.3125 µM was 81.3%.

**Q.** What about the viability at 0.625 µM ([5]; Plasmodium falciparum, 6 h, 625 nM, 6 h pulse, individual experiments, 0 nM = 100) of the same compound?
**A.** Its viability at 0.625 µM is 79.9%.

**Q.** What about the viability at 1.25 µM ([5]; Plasmodium falciparum, 6 h, 1250 nM, 6 h pulse, individual experiments, 0 nM = 100) of the same compound?
**A.** Its viability at 1.25 µM is 79.8%.

**Q.** What about the viability at […] ([5]; Plasmodium falciparum, 6 h, 2500 nM, 6 h pulse, individual experiments, 0 nM = 100) of the same compound?
**A.** The viability at […] was 77.1%.

**Q.** What about the IC50 ([5]; Plasmodium falciparum, 6 h, read-out: IC50 (Viability)) of the same compound?
**A.** The IC50 was 4700 nM.

**Q.** What about the Growth ([6]; 3.125 nM OSM-S-106, 500 nM aTc) of the same compound?
**A.** The Growth was 98.4708 and 116.919 and 104.321.

**Q.** And the Growth ([6]; 3.125 nM OSM-S-106, no aTc)?
**A.** Its Growth is 98.4734 and 92.161 and 100.93.

**Q.** And the Growth ([6]; 6.25 nM OSM-S-106, 500 nM aTc)?
**A.** The Growth was 96.7408 and 93.8415 and 101.366.

**Q.** What about the Growth ([6]; 6.25 nM OSM-S-106, no aTc) of the same compound?
**A.** The Growth was 92.1288 and 90.7869 and 100.211.

**Q.** What about the Growth ([6]; 12.5 nM OSM-S-106, 500 nM aTc) of the same compound?
**A.** The Growth was 103.105 and 71.6867 and 103.065.

**Q.** And the Growth ([6]; 12.5 nM OSM-S-106, no aTc)?
**A.** The Growth was 102.145 and 82.3472 and 97.2955.

**Q.** What about the Growth ([6]; 25 nM OSM-S-106, 500 nM aTc) of the same compound?
**A.** Its Growth is 96.4937 and 50.4813 and 93.5.

**Q.** What about the Growth ([6]; 25 nM OSM-S-106, no aTc) of the same compound?
**A.** The Growth was 103.53 and 55.9318 and 95.9432.

**Q.** And the ATP consumption ([7]; 0.1 μM OSM-S-106)?
**A.** Its ATP consumption is 0.9809 and 0.9695 and 0.9878.

**Q.** What about the IC50 ([7]; 0.2 μM HsAsnRS, E. coli tRNA present, 37 °C, 1 h (Fig. 3C, D)) of the same compound?
**A.** The IC50 was greater than 100000 nM.

**Q.** What about the ATP consumption ([7]; 1 μM OSM-S-106) of the same compound?
**A.** Its ATP consumption is 0.993 and 0.9826 and 1.

**Q.** And the ATP consumption ([7]; 3 μM OSM-S-106)?
**A.** Its ATP consumption is 0.9931 and 0.9791 and 0.9532.

**Q.** And the ATP consumption ([7]; 10 μM OSM-S-106)?
**A.** The ATP consumption was 0.9721 and 1 and 0.9745.

**Q.** What about the ATP consumption ([7]; 30 μM OSM-S-106) of the same compound?
**A.** The ATP consumption was 0.9297 and 0.9566 and 0.9615.

**Q.** What about the ATP consumption ([7]; 100 μM OSM-S-106) of the same compound?
**A.** Its ATP consumption is 0.955 and 0.928 and 0.9784.

**Q.** And the ATP consumption ([7]; 200 μM OSM-S-106)?
**A.** Its ATP consumption is 0.929 and 0.9898.

**Q.** What about the solubility ([8]; pH 2, simulated gastric fluid) of the same compound?
**A.** Its solubility is 50 to 100 µg/mL (≈ 163 to 326 µM).

**Q.** What about the solubility ([8]; pH 6.5, aqueous buffer) of the same compound?
**A.** The solubility was 12.5 to 25 µg/mL (≈ 40.8 to 81.6 µM).

**Q.** What about the “stability in the solid state” value [9] of the same compound?
**A.** Its value is “stable in the solid state”.
